Earlier results, collected in patent publication US5041577A, “Organogermanium compounds, processes for producing the same, and agent for inhibiting the activity of opioid peptide-degrading enzyme” (Asai Germanium Research Institute Co., Ltd., priority 1989, dated 1991).

Tests used:
[1] = test system: spontaneous hypertensive rats

O=C(O)C[CH2][Ge](=[O])[O][Ge](=[O])[CH2]CC(=O)O [carboxyethylgermanium sesquioxide]
hypotensive action [1]: shows a hypotensive action | amyloidosis-alleviating action (amyloidosis): amyloidosis-alleviating action | macrophage-augmenting action (macrophage): macrophage-augmenting action | interferon-inducing action (interferon): interferon-inducing action | antitumor action (tumor): antitumor action
